The subject of data set [1] is cell fusion of Sf21 cells infected with CS-WT viruses (CHIKV). Description: Cell fusion assay, Sf21 cells infected with recombinant baculovirus CS-WT. The note with it: for inhibition of cell fusion induced by CS-WT infection, primary screening: Sf21 cells, screening of drug library, antiviral agents and synthetic peptides, data not shown; for inhibition of cell fusion in CS-WT infected Sf21 cells: 5 mg/mL, 2 hours, pH 5.8, FIG. 11; for inhibition of the membrane fusion of Chikungunya viruses (summary of screening result): bicistronic baculovirus expression system in Sf21 cells.

Data set [2] has as its system CHIKV. The data set can be described thus: Immunofluorescence assay of CHIKV infection in BHK-21 cells. The format is cell-based, Chikungunya virus.
Another data set has as its system BHK-21 cells. Description: Cytotoxicity assay (crystal violet). The format is cell-based. The note with it: 1,000 μg/ml, BHK-21, 2 days, crystal violet OD 540, FIG. 18 left panel. How it is done:
10^5 BHK-21 cells per well of 96-well plate were cultured with 2% FCS DMEM. For cykotoxicity assay, cells were cultured in the presence or absence of drug at various concentrations in duplication for 2 days. For cell protection assay, cells were infected with CHIKV at moi of 0.05 in the presence or absence of drugs at various concentrations in duplication for 2 days. Cells were then stained with 0.1% crystal violet solution to observe clearance of the cell monolayer caused by the cytotoxic or cytopathic effect. Crystal violet was quantified by optical density (OD) 540.

Data set [3] deals with CHIKV. Description: Cell protection assay against CHIKV infection (crystal violet). The note with it: BHK-21, moi 0.05, 2 days, FIG. 18. The format is cell-based, Chikungunya virus.
In data set [4] the test system is CHIKV. The data set can be described thus: Western blot of CHIKV structural protein production in BHK-21 cells. The note with it: FIG. 14.
For data set [5], the system named is cell fusion of Sf21 cells infected with VS-TC83 (VEEV-TC83) viruses. The format is cell-based, Venezuelan equine encephalitis virus. The note with it: for inhibition of fusion (fusion index) of Sf21 cells infected with VS-TC83 viruses: pH 5.8.
Another data set concerns VEEV-TC83. The data set is classed as cell-based, Venezuelan equine encephalitis virus.

This is an account of results in US9381175B2, “Method for treating Chikungunya virus infection” (priority 2014, dated 2016).

With `O=C1[C@H](CC[C@H](O)c2ccc(F)cc2)[C@@H](c2ccc(O)cc2)N1c1ccc(F)cc1` [ezetimibe], in data set [1], the “inhibition of cell fusion induced by CS-WT infection, primary screening” value (“inhibition … primary screening” for short) was “failed to inhibit the cell fusion”.
Turning to `NC(=O)c1ncn([C@@H]2O[C@H](CO)[C@@H](O)[C@H]2O)n1` [ribavirin], the “inhibition of CHIKV infection in vitro (E2 immunofluorescence), comparison with suramin” value with CHIKV [2] (12.5 μg/ml, BHK-21, M.O.I. 1, 20 hours, FIG. 15) was “inhibition efficacy of suramin is higher than that of ribavirin”.
Take `Cc1ccc(C(=O)Nc2ccc(S(=O)(=O)O)c3cc(S(=O)(=O)O)cc(S(=O)(=O)O)c23)cc1NC(=O)c1cccc(NC(=O)Nc2cccc(C(=O)Nc3cc(C(=O)Nc4ccc(S(=O)(=O)O)c5cc(S(=O)(=O)O)cc(S(=O)(=O)O)c45)ccc3C)c2)c1` [suramin]: the cytotoxicity entry with BHK-21 cells is listed as “minimal cytotoxicity”. The “inhibitory effect on cell fusion (fusion index)” value in data set [1] (55 μM, FIG. 13) is listed as “minimal”. Moreover, in data set [1], the “inhibition of cell fusion in CS-WT infected Sf21 cells” value was “remarkably inhibited the cell fusion”; the “inhibition … primary screening” value is “substantially inhibited the cell fusion”; the “inhibition of the membrane fusion of Chikungunya viruses (summary of screening result)” value is “block the membrane fusion”. The “inhibitory efficacy on cell fusion (fusion index), dose dependence” value in data set [1] (3,500, 875, 219 or 55 μM, FIG. 12/13) was “inhibitory efficacy of suramin increases as the concentration of suramin increases”. In addition, the “inhibition of CHIKV infection in vitro (E2 immunofluorescence)” value with CHIKV [2] (175 μM (2.5 mg/mL), BHK-21, M.O.I. 1, 20 hours, FIG. 15) is “inhibit CHIKV infection in vitro”. Further, the “time-of-addition: stage in which the inhibition activity takes place” value in the data set on CHIKV [2] (5 mg/mL (350 μM), immunofluorescence, FIG. 17 panels A-C) is listed as 0-2 hours post infection. In the data set with CHIKV [2] (5 mg/mL (350 μM), immunofluorescence, FIG. 17 panels D-F), the “time-of-addition: inhibitory effect on addition at a later stage” value is reported as “almost no inhibitory effect”. In the data set on CHIKV [2] (BHK-21, 2,000 PFU CHIKV, 20 hours, FIG. 16), the “in vitro inhibition efficacy against CHIKV, dose dependence” value is “increases as the concentration of suramin increases”. The “in vitro inhibitory effect against CHIKV” value in the data set on CHIKV [2] (dose of less than 44 μM, FIG. 16 panel D) is “marginal inhibitory effect”. Further, in the data set on CHIKV [3], the “concentrations at which the cells are significantly protected from CHIKV infection” value was 15.6-1,000 μg/ml and the “protection from the cytopathic effect of CHIKV infection” value is “protects BHK-21 cells from the cytopathic effect”. Also, the “inhibitory effect on the production of the structural proteins of CHIKV” value with CHIKV [4] (44 μM, BHK-21 cells) is “only marginal inhibitory effect”. Besides, the “inhibitory effect on the production of the structural proteins of CHIKV, dose dependence” value in the data set on CHIKV [4] (BHK-21 cells, 10,000 PFU CHIKV, 20 hours) is “dose-dependency of the inhibitory effect”.
For the compound carrageenan, the “inhibition … primary screening” value in data set [1] is recorded as “failed to inhibit the cell fusion”.
Take chondroitin sulfate: the “inhibition of cell fusion in CS-WT infected Sf21 cells” value in data set [1] is given as “did not substantially inhibit the cell fusion”.
In the case of dextran sulfate, the “inhibition of the membrane fusion of Chikungunya viruses (summary of screening result)” value in data set [1] was “not effective to inhibit the membrane fusion”. For the same compound, in data set [5], the “inhibition of cell fusion induced by VS-TC83 virus, dose dependence” value is given as “inhibit the cell fusion induced by VS-TC83 virus in a dose-dependent manner”; the “inhibition of the membrane fusion of Venezuelan equine encephalitis virus (summary of screening result)” value is “can inhibit the membrane fusion”; the “inhibition of fusion (fusion index) of Sf21 cells infected with VS-TC83 viruses” value is “substantially inhibit the fusion”. The “inhibition of VEEV-TC83 infection” value in the data set with VEEV-TC83 was “elicited dose-dependent inhibition”.
Consider heparin, for which the “inhibition of the membrane fusion of Chikungunya viruses (summary of screening result)” value in data set [1] was “not effective to inhibit the membrane fusion”. In addition, in data set [5], the “inhibition of cell fusion induced by VS-TC83 virus, dose dependence” value was “inhibit the cell fusion induced by VS-TC83 virus in a dose-dependent manner”; the “inhibition of the membrane fusion of Venezuelan equine encephalitis virus (summary of screening result)” value was “can inhibit the membrane fusion”; the “inhibition of fusion (fusion index) of Sf21 cells infected with VS-TC83 viruses” value is listed as “substantially inhibit the fusion”. Also, in the data set on VEEV-TC83, the “inhibition of VEEV-TC83 infection” value is “elicited dose-dependent inhibition”.
